# Target: T1, cholecystokinin-2 receptor (CCK-2R) (Rattus norvegicus, UniProt P30553)
# T1 construct: host or cells: AR42J (rat pancreatic cancer cells)
# T1 sequence (P30553 1-452): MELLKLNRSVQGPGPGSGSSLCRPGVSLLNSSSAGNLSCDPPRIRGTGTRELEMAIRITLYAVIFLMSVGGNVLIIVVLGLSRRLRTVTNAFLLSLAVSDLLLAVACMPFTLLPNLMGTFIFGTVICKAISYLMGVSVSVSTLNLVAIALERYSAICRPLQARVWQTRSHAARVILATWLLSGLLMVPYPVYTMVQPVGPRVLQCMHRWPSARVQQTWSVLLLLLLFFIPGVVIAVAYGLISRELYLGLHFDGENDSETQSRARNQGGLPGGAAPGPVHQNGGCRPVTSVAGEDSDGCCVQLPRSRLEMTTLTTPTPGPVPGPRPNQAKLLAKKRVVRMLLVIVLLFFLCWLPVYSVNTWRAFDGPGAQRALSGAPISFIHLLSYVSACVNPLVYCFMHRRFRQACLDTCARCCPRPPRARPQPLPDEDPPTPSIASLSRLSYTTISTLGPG
# Test: CCK-2R affinity (apparent IC50), competitive binding on AR42J cells
# Conditions: natLu-labeled peptide, 3 h, 37 °C, [177Lu]Lu-DOTA-PP-F11N (0.3 pmol) as radiolabeled reference
# Description: On the next day, medium was removed, cells were washed with PBS (300 µL) and fresh nutrient medium supplemented with 5% BSA (200 µL) was added. The peptide of interest (25 µL in nutrient medium) in increasing concentrations (10^−10 to 10^−4 M) in triplicate as well as [^177Lu]Lu-DOTA-PP-F11N (25 μL, 0.3 pmol) were added to the cells and the assay was incubated for 3 h at 37 °C. Subsequently, the supernatant was collected, cells were washed with PBS (300 µL) and both fractions were unified. Cell lysis was conducted by addition of NaOH (300 µL, 1 N) and incubation for at least 20 min at room temperature. The supernatant was collected, the respective wells were washed with NaOH (300 µL, 1 N) and both fractions were unified. Radioactivity of all fractions collected was quantified using a γ-counter (PerkinElmer Inc., Waltham, United States). Apparent half-maximal inhibitory concentration (IC50) was calculated via the GraphPad PRISM software (GraphPad Software Inc., La Jolla, United States).
# CCK-2R positive rat pancreatic cancer cells AR42J (CLS GmbH, Eppelheim, Germany) were cultivated in monolayers in CELLSTAR® cell culture flask (Greiner Bio-One GmbH, Frickenhausen, Germany) at 37°C in a humidified atmosphere (5% CO2). Therefor, a HERAcell 150i-Incubator (Thermo Fisher Scientific Inc., Waltham, United States) was used. RPMI 1640 medium, supplemented with 5 mM L-Gln 5 mL non-essential amino acids (100×) and 10% FCS, was used for cell nutrition. Detachment of the cells for passaging was conducted with a Dulbecco’s PBS solution supplemented with 0.1% EDTA (v/v). Cell numbers were determined with a Neubauer hemocytometer (Paul Marienfeld, Lauda-Königshofen, Germany). All operations requiring sterile conditions, were accomplished using a MSC-Advantage safety workbench (Thermo Fisher Scientific Inc., Waltham, United States).
# Table S1. Affinity, lipophilicity and human serum albumin binding data of the compounds evaluated. Affinity data were determined on AR42J cells (2.0 × 10^5 cells/well) and [^177Lu]Lu-DOTA-PP-F11N (0.3 pmol/well) as radiolabeled reference (3 h, 37 °C, RPMI 1640, 5 mM L-Gln, 5 mL non-essential amino acids (100×), 10% FCS + 5% BSA (v/v)).
compound,measurement,setting,value
"CCCC[C@@H](C(=O)N[C@@H](CC(=O)O)C(=O)N[C@@H](Cc1cccc2ccccc12)C(N)=O)N(C)C(=O)[C@H](Cc1c[nH]c2ccccc12)NC(=O)CCOCCOCCOCCOCCNC(=O)CC[C@@H](NC(=O)CCOCCOCCOCCOCCOCCNC(=O)CC[C@@H](NC(=O)[C@@H](CNC(=O)C[N+](C)(C)Cc1ccc([Si](F)(C(C)(C)C)C(C)(C)C)cc1)NC(=O)CN1CCN(CC(=O)O)CCN(CC(=O)O)CCN(CC(=O)O)CC1)C(=O)O)C(=O)O [[^nat/177Lu]Lu-DOTA-rhCCK-91, DOTA-D-Dap(SiFAlin)-D-γ-Glu-(PEG)4-D-γ-Glu-(PEG)3-Trp-(N-Me)Nle-Asp-1-Nal-NH2, metal not drawn]",IC50,"n = 3, listed as [^177/natLu]Lu-DOTA-rhCCK-91",8.6 ± 0.7 nM
same,IC50,"n = 3, listed as [^natLu]Lu-DOTA-rhCCK-91",8.56 ± 0.66 nM

# — article PMC10907560, “Significant reduction of activity retention in the kidneys via optimized linker sequences in radiohybrid-based minigastrin analogs” (EJNMMI Research, 2024)
